# Measured values as given in article PMC4700511 (Biochemistry, 2015).
# How the values were obtained:
# [1] = biological target: T1, VIM-2 (Escherichia coli, UniProt Q5U7L7); experiment: BTZ inhibition kinetics of nitrocefin hydrolysis by VIM-2; assay type: biochemical, P. aeruginosa; conditions: for Ki: overall dissociation constant from vs, slow binding model
# [2] = biological target: T2, VIM-24 (Escherichia coli, UniProt Q5U7L7, R205L); experiment: BTZ inhibition kinetics of nitrocefin hydrolysis by VIM-24; assay type: biochemical, Klebsiella pneumoniae; conditions: for Ki: overall dissociation constant from vs, slow binding model
# [3] = tested on: MBLs; experiment: Inhibitory activity toward MBLs after prolonged exposure to oxidative conditions; assay type: biochemical; conditions: assays in solution; data not shown
# [4] = tested on: E. coli DH10B pBCSK(−) producing R228K; experiment: MIC by agar dilution, E. coli DH10B pBCSK; assay type: cell-based; conditions: Escherichia coli
# [5] = tested on: E. coli DH10B pBCSK(−) producing R228Y; experiment: MIC by agar dilution, E. coli DH10B pBCSK; assay type: cell-based; conditions: Escherichia coli
# [6] = tested on: E. coli DH10B pBCSK(−) producing R228Q; experiment: MIC by agar dilution, E. coli DH10B pBCSK; assay type: cell-based; conditions: Escherichia coli
# [7] = tested on: E. coli DH10B pBCSK(−) producing R228X (other variants); experiment: MIC by agar dilution, E. coli DH10B pBCSK; assay type: cell-based; conditions: Escherichia coli, R228X: range of MIC values of the other variants; MHA
# [8] = tested on: E. coli DH10B pBCSK(−) producing R228P; experiment: MIC by agar dilution, E. coli DH10B pBCSK; assay type: cell-based; conditions: Escherichia coli
# [9] = tested on: E. coli DH10B pBCSK(−) producing VIM-24 (R228L); experiment: MIC by agar dilution, E. coli DH10B pBCSK; assay type: cell-based; conditions: Escherichia coli
# [10] = tested on: E. coli pBC SK(−); experiment: MIC by agar dilution, E. coli DH10B with empty pBC SK; assay type: cell-based; conditions: Escherichia coli
# [11] = tested on: E. coli DH10B pBCSK(−) producing R228M; experiment: MIC by agar dilution, E. coli DH10B pBCSK; assay type: cell-based; conditions: Escherichia coli
# [12] = tested on: E. coli DH10B pBCSK(−) producing VIM-2 (228R); experiment: MIC by agar dilution, E. coli DH10B pBCSK; assay type: cell-based; conditions: Escherichia coli
# [13] = biological target: T1, VIM-2; experiment: Hydrolysis of cefepime and ceftazidime by periplasm preparations, VIM-2; assay type: biochemical, P. aeruginosa; conditions: VIM-2 periplasmic preparation; 800 μM cefepime
# [14] = biological target: T2, VIM-24; experiment: Hydrolysis of cefepime and ceftazidime by periplasm preparations, VIM-24; assay type: biochemical, Klebsiella pneumoniae; conditions: VIM-24 periplasmic preparation; 800 μM cefepime
# [15] = rate constant for formation of E*I
smiles,measurement,setting,value
O=C(O)[C@H]1CS[C@@H]2CS[C@@H](CS)N12 [D-CS319],Ki,[1],180 ± 20 nM
same,k2,[1]; [15],(0.01 ± 1) × 10^−3 s^−1
same,Ki,[2],640 ± 10 nM
same,k−2,[2]; rate constant for breakdown of E*I,(0.004 ± 1) × 10^−3 s^−1
same,k2,[2]; [15],(0.07 ± 4) × 10^−3 s^−1
O=C(O)[C@@H]1CS[C@H]2CS[C@H](CS)N21 [L-CS319],Ki,[1],40 ± 10 nM
same,Ki,[2],120 ± 20 nM
same,effect of prolonged exposure to oxidative conditions on inhibitory activity,[3],abolishes the inhibitory activity
CC1(C)S[C@@H]2[C@H](NC(=O)[C@H](N)c3ccccc3)C(=O)N2[C@H]1C(=O)O [ampicillin],MIC,[4]; MHA,32 µg/mL
same,MIC,[5]; MHA,1020 µg/mL
same,MIC,[6]; MHA,1020 µg/mL
same,MIC,[7],64 to 512 µg/mL
same,MIC,[8]; MHA,32 µg/mL
same,MIC,[9]; MHA,512 µg/mL
same,MIC,[10]; MHA,4 µg/mL
same,MIC,[11]; MHA,1020 µg/mL
same,MIC,[12]; MHA,512 µg/mL
C[C@H]1[C@H](NC(=O)/C(=N\OC(C)(C)C(=O)O)c2csc(N)n2)C(=O)N1S(=O)(=O)O [aztreonam],MIC,[4]; MHA,≤ 0.125 µg/mL
same,MIC,[5]; MHA,≤ 0.125 µg/mL
same,MIC,[6]; MHA,≤ 0.125 µg/mL
same,MIC,[7],≤ 0.125 µg/mL
same,MIC,[8]; MHA,≤ 0.125 µg/mL
same,MIC,[9]; MHA,≤ 0.125 µg/mL
same,MIC,[10]; MHA,≤ 0.125 µg/mL
same,MIC,[11]; MHA,≤ 0.125 µg/mL
same,MIC,[12]; MHA,≤ 0.125 µg/mL
CO/N=C(\C(=O)N[C@@H]1C(=O)N2C(C(=O)[O-])=C(C[N+]3(C)CCCC3)CS[C@H]12)c1csc(N)n1 [cefepime],rate of hydrolysis (initial velocity) in periplasm,[13],2.9e-07 M/s
same,rate of hydrolysis (initial velocity) in periplasm,[14],5.3e-07 M/s
same,MIC,[4]; MHA,0.5 µg/mL
same,MIC,[4]; MHA + 5 μM EDTA,≤ 0.25 µg/mL
same,MIC,[4]; MHA + 250 μM Zn^2+,≤ 0.25 µg/mL
same,MIC,[5]; MHA,8 µg/mL
same,MIC,[5]; MHA + 5 μM EDTA,8 µg/mL
same,MIC,[5]; MHA + 250 μM Zn^2+,8 µg/mL
same,MIC,[6]; MHA,16 µg/mL
same,MIC,[6]; MHA + 5 μM EDTA,16 µg/mL
same,MIC,[6]; MHA + 250 μM Zn^2+,32 µg/mL
same,MIC,[7],1 to 4 µg/mL
same,MIC,[8]; MHA,0.25 µg/mL
same,MIC,[8]; MHA + 5 μM EDTA,≤ 0.25 µg/mL
same,MIC,[8]; MHA + 250 μM Zn^2+,0.5 µg/mL
same,MIC,[9]; MHA,4 µg/mL
same,MIC,[9]; MHA + 5 μM EDTA,4 µg/mL
same,MIC,[9]; MHA + 250 μM Zn^2+,4 µg/mL
same,MIC,[10]; MHA,0.03 µg/mL
same,MIC,[10]; MHA + 5 μM EDTA,≤ 0.25 µg/mL
same,MIC,[10]; MHA + 250 μM Zn^2+,≤ 0.25 µg/mL
same,MIC,[11]; MHA,2 µg/mL
same,MIC,[11]; MHA + 5 μM EDTA,4 µg/mL
same,MIC,[11]; MHA + 250 μM Zn^2+,2 µg/mL
same,MIC,[12]; MHA,≤ 0.5 µg/mL
same,MIC,[12]; MHA + 5 μM EDTA,0.5 µg/mL
same,MIC,[12]; MHA + 250 μM Zn^2+,0.5 µg/mL
CO/N=C(\C(=O)N[C@@H]1C(=O)N2C(C(=O)O)=C(COC(C)=O)CS[C@H]12)c1csc(N)n1 [cefotaxime],MIC,[4]; MHA,1 µg/mL
same,MIC,[5]; MHA,16 µg/mL
same,MIC,[6]; MHA,32 µg/mL
same,MIC,[7],2 to 32 µg/mL
same,MIC,[8]; MHA,1 µg/mL
same,MIC,[9]; MHA,16 µg/mL
same,MIC,[10]; MHA,0.06 µg/mL
same,MIC,[11]; MHA,16 µg/mL
same,MIC,[12]; MHA,8 µg/mL
